ChEMBL document CHEMBL5579846, “Synthesis of thiazolidine-2,4-dione tethered 1,2,3-triazoles as α-amylase inhibitors: In vitro approach coupled with QSAR, molecular docking, molecular dynamics and ADMET studies” (Eur J Med Chem, 2024)

Target: T1, Alpha amylase (Homo sapiens, UniProt P0DUB6)
T1 sequence (P0DUB6 whole entry): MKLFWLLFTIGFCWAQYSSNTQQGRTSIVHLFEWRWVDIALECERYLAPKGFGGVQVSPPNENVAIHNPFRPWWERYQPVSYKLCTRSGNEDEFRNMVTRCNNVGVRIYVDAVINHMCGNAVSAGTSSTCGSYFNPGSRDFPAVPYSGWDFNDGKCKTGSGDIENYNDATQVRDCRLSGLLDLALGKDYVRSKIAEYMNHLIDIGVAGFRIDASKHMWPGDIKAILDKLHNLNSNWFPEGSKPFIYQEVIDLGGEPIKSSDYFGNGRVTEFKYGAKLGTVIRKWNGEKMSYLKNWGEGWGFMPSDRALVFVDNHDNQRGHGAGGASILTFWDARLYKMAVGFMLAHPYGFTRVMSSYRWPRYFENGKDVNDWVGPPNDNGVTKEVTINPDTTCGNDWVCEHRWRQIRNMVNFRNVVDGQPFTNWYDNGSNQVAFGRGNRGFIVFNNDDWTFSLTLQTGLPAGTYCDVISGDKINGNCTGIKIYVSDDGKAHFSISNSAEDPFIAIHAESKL
Test: Inhibition of alpha-amylase (unknown origin) using 1% starch as substrate preincubated for 30 mins followed by substrate addition and measured after 30 mins by colorimetric analysis
Assay type: protein assay

Row | IC50 [µM] | pIC50 | SMILES
1 | 80 | 7.095 | CN(C)/C=C1\SC(=O)N(Cc2cn(Cc3ccccc3)nn2)C1=O
2 | 61 | 7.215 | Cc1cccc(-n2cc(CN3C(=O)S/C(=C\N(C)C)C3=O)nn2)c1
3 | 40 | 7.399 | CN(C)/C=C1\SC(=O)N(Cc2cn(-c3ccnc4cc(Cl)ccc34)nn2)C1=O
4 | 58 | 7.24 | CCCCn1cc(CN2C(=O)S/C(=C\N(C)C)C2=O)nn1
5 | 59 | 7.227 | CN(C)/C=C1\SC(=O)N(Cc2cn(-c3ccc([N+](=O)[O-])cc3)nn2)C1=O
6 | 53 | 7.276 | COc1ccc(-n2cc(CN3C(=O)S/C(=C\N(C)C)C3=O)nn2)cc1
7 | 69 | 7.164 | COc1cccc(-n2cc(CN3C(=O)S/C(=C\N(C)C)C3=O)nn2)c1
8 | 84 | 7.077 | CN(C)/C=C1\SC(=O)N(Cc2cn(-c3ccc(C(F)(F)F)cc3)nn2)C1=O
9 | 78 | 7.108 | CN(C)/C=C1\SC(=O)N(Cc2cn(CC(=O)c3ccc(Br)cc3)nn2)C1=O
10 | 139 | 6.859 | C#CCN1C(=O)S/C(=C\N(C)C)C1=O
11 | 49 | 7.307 | CCc1ccccc1-n1cc(CN2C(=O)S/C(=C\N(C)C)C2=O)nn1
12 | 91 | 7.039 | CN(C)/C=C1\SC(=O)N(Cc2cn(-c3ccccc3Cl)nn2)C1=O
13 | 45 | 7.349 | CN(C)/C=C1\SC(=O)N(Cc2cn(Cc3ccc(Cl)cc3Cl)nn2)C1=O
14 | 55 | 7.258 | CN(C)/C=C1\SC(=O)N(Cc2cn(-c3cccc(C(F)(F)F)c3)nn2)C1=O
15 | 93 | 7.031 | CN(C)/C=C1\SC(=O)N(Cc2cn(-c3ccc(F)cc3)nn2)C1=O
16 | 99 | 7.003 | CN(C)/C=C1\SC(=O)N(Cc2cn(-c3ccccc3)nn2)C1=O
17 | 60 | 7.222 | CN(C)/C=C1\SC(=O)N(Cc2cn(-c3cccc(Cl)c3Cl)nn2)C1=O
18 | 66 | 7.182 | CN(C)/C=C1\SC(=O)N(Cc2cn(-c3cccc(Cl)c3)nn2)C1=O
19 | 66 | 7.182 | Cc1cc(C)cc(-n2cc(CN3C(=O)S/C(=C\N(C)C)C3=O)nn2)c1
20 | 93 | 7.032 | Cc1ccc(C)c(-n2cc(CN3C(=O)S/C(=C\N(C)C)C3=O)nn2)c1
21 | 48 | 7.318 | Cc1ccc(-n2cc(CN3C(=O)S/C(=C\N(C)C)C3=O)nn2)c(C)c1
22 | 48 | 7.319 | CN(C)/C=C1\SC(=O)N(Cc2cn(-c3ccccc3C(F)(F)F)nn2)C1=O
23 | 54 | 7.268 | CC(C)c1ccc(-n2cc(CN3C(=O)S/C(=C\N(C)C)C3=O)nn2)cc1
24 | 98 | 7.01 | CN(C)/C=C1\SC(=O)N(Cc2cn(-c3ccc(Cl)cc3)nn2)C1=O
25 | 68 | 7.169 | CCc1ccc(-n2cc(CN3C(=O)S/C(=C\N(C)C)C3=O)nn2)cc1
26 | 65 | 7.185 | COc1ccccc1-n1cc(CN2C(=O)S/C(=C\N(C)C)C2=O)nn1
